Values of other authors in US12472264B2, “Cell-penetrating peptides” (Oxford University Innovation Limited, priority 2018, dated 2025).

System: exon 51
Conditions: background statement on FDA accelerated approval, September 2016

eteplirsen
levels of dystrophin restoration: approximately 1 % of normal dystrophin levels
